The values that follow come from patent publication US11540518B2, “Fungicidal oxadiazoles” (FMC Corporation, priority 2017, dated 2023).

Type in all cases: in vivo
One assay has as its system Phakopsora pachyrhizi. Nature of the assay: Test A: Asian soybean rust control on soybean seedlings. As to conditions: sprayed to run-off on soybean seedlings, inoculated the following day, 100 = 100% disease control, 0 = no control. An excerpt:
General protocol for preparing test suspensions for Tests A-C: the test compounds were first dissolved in acetone in an amount equal to 3% of the final volume and then suspended at the desired concentration (in ppm) in acetone and purified water (50/50 mix by volume) containing 250 ppm of the surfactant PEG400 (polyhydric alcohol esters). The resulting test suspensions were then used in Tests A-C.
The test solution was sprayed to the point of run-off on soybean seedlings. The following day the seedlings were inoculated with a spore suspension of Phakopsora pachyrhizi (the causal agent of Asian soybean rust) and incubated in a saturated atmosphere at 22° C. for 24 h, and then moved to a growth chamber at 22° C. for 8 days, after which time visual disease ratings were made.
Results for Tests A-C are given in Table A. In the Table, a rating of 100 indicates 100% disease control and a rating of 0 indicates no disease control (relative to the controls). A dash (-) indicates the compound was not tested.

The subject of the next assay is Zymoseptoria tritici. Description: Test B: wheat leaf blotch control on wheat seedlings. Particulars: sprayed to run-off on wheat seedlings, inoculated the following day, 100 = 100% disease control, 0 = no control. An excerpt: (§1) General protocol for preparing test suspensions for Tests A-C: the test compounds were first dissolved in acetone in an amount equal to 3% of the final volume and then suspended at the desired concentration (in ppm) in acetone and purified water (50/50 mix by volume) containing 250 ppm of the surfactant PEG400 (polyhydric alcohol esters). The resulting test suspensions were then used in Tests A-C. The test solution was sprayed to the point of run-off on wheat seedlings. The following day the seedlings were inoculated with a spore suspension of Zymoseptoria tritici (the causal agent of wheat leaf blotch) and incubated in a saturated atmosphere at 24° C. for 48 h, and then moved to a growth chamber at 20° C. for 17 days, after which time disease ratings were made. Results for Tests A-C are given in Table A. In the Table, a rating of 100 indicates 100% disease control and a rating of 0 indicates no disease control (relative to the controls). A dash (-) indicates the compound was not tested.

In assay [1] the test system is Puccinia recondita f. sp. tritici. Nature of the assay: Test C: wheat leaf rust control on wheat seedlings. Particulars: sprayed to run-off on wheat seedlings, inoculated the following day, 100 = 100% disease control, 0 = no control.
Description: as §1, with “Puccinia recondita f. sp.” for “Zymoseptoria”, “rust)” for “blotch)”, “20°” for “24°”, “24” for “48”, “6” for “17”

Setting [2] is: 250 ppm (incl. values marked * = tested at 250 ppm).

Turning to `C=CCNC(=O)OCc1cccc(-c2noc(C(F)(F)F)n2)c1` [Compound 97], the “Test A disease control rating” value in the assay with Phakopsora pachyrhizi (250 ppm) came to 100%. Further, the “Test B disease control rating” value in the assay on Zymoseptoria tritici (setting [2]) was found to be 52%. The “Test C disease control rating” value in assay [1] (250 ppm) was found to be 100%.
Regarding `CCNC(=O)OCC(OC)c1ccc(-c2noc(C(F)(F)F)n2)cc1` (racemic) [Compound 5], in the assay on Phakopsora pachyrhizi (260 ppm), the “Test A disease control rating” value is 100%. For the same compound, in the assay with Zymoseptoria tritici (260 ppm), the “Test B disease control rating” value came to 81%. For the same compound, the “Test C disease control rating” value in assay [1] (260 ppm) was 100%.
On to `CCNC(=O)OC(c1ccc(F)cc1)c1ccc(-c2noc(C(F)(F)F)n2)cc1` (stereo not drawn) [Compound 114], for which the “Test A disease control rating” value in the assay with Phakopsora pachyrhizi (250 ppm) was 100%. Further, the “Test B disease control rating” value with Zymoseptoria tritici (setting [2]) amounted to 9%. Moreover, the “Test C disease control rating” value in assay [1] (250 ppm) was 100%.
Turning to `NC(=O)OC(c1ccc(-c2noc(C(F)(F)F)n2)cc1)c1cccc(F)c1` (stereo not drawn) [Compound 131], the “Test A disease control rating” value in the assay with Phakopsora pachyrhizi (250 ppm) was determined as 100%. In addition, the “Test B disease control rating” value with Zymoseptoria tritici (setting [2]) was 96%. Also, in assay [1] (250 ppm), the “Test C disease control rating” value amounted to 100%.
`CCNC(=O)OC(c1ccc(C)cc1)c1ccc(-c2noc(C(F)(F)F)n2)cc1` (stereo not drawn) [Compound 145]: the “Test A disease control rating” value in the assay on Phakopsora pachyrhizi (250 ppm) is on record as 100%. The “Test B disease control rating” value in the assay with Zymoseptoria tritici (setting [2]) was 28%. In addition, the “Test C disease control rating” value in assay [1] (250 ppm) came out at 98%.
As to `C=C(C)CNC(=O)OC(c1ccc(C)cc1)c1ccc(-c2noc(C(F)(F)F)n2)cc1` (stereo not drawn) [Compound 146], in the assay on Phakopsora pachyrhizi (250 ppm), the “Test A disease control rating” value amounted to 100%. In addition, the “Test B disease control rating” value in the assay on Zymoseptoria tritici (setting [2]) turned out to be 21%. In addition, in assay [1] (250 ppm), the “Test C disease control rating” value came to 97%.
Regarding `CNC(=O)OCc1cccc(-c2noc(C(F)(F)F)n2)c1` [Compound 94], the “Test A disease control rating” value in the assay with Phakopsora pachyrhizi (250 ppm) came to 69%. The “Test B disease control rating” value in the assay on Zymoseptoria tritici (setting [2]) was 1%. Further, the “Test C disease control rating” value in assay [1] (250 ppm) is 100%.
In the case of `CCCNC(=O)OC(c1ccccc1)c1ccc(-c2noc(C(F)(F)F)n2)cc1` (stereo not drawn) [Compound 139], the “Test A disease control rating” value in the assay on Phakopsora pachyrhizi (250 ppm) amounted to 100%. Further, the “Test B disease control rating” value with Zymoseptoria tritici (setting [2]) is recorded as 56%. The “Test C disease control rating” value in assay [1] (250 ppm) turned out to be 100%.
For `CC(OC(=O)N(C)C)c1ccc(-c2noc(C(F)(F)F)n2)cc1` (stereo not drawn) [Compound 72], the “Test A disease control rating” value with Phakopsora pachyrhizi (10 ppm) is 100%. Moreover, the “Test B disease control rating” value with Zymoseptoria tritici (setting [2]) is recorded as 0* %. Also, in assay [1] (10 ppm), the “Test C disease control rating” value was found to be 55%.
Turning to `CN(C)C(=O)OC(c1ccc(-c2noc(C(F)(F)F)n2)cc1)c1cccc(F)c1` (stereo not drawn) [Compound 134], the “Test A disease control rating” value with Phakopsora pachyrhizi (250 ppm) is recorded as 100%. Besides, the “Test B disease control rating” value in the assay on Zymoseptoria tritici (setting [2]) turned out to be 50%. The “Test C disease control rating” value in assay [1] (250 ppm) worked out at 89%.
Regarding `NC(=O)OCc1ccc(-c2noc(C(F)(F)F)n2)cc1` [Compound 17, [4-[5-(trifluoromethyl)-1,2,4-oxadiazol-3-yl]phenyl]methyl carbamate], the pest or weed control at 260 ppm in the assay with Phakopsora pachyrhizi (Phakopsora pachyrhizi, 216 h, 260 ppm, read-out: Test A disease control rating) was determined as 100%; in assay [1] (Puccinia recondita, 168 h, 260 ppm, read-out: Test C disease control rating) it was 100%. For the same compound, the “Test B disease control rating” value in the assay with Zymoseptoria tritici (260 ppm) was 92%.
As for `CCCNC(=O)OCc1ccc(-c2noc(C(F)(F)F)n2)cc1` [Compound 10], the “Test A disease control rating” value with Phakopsora pachyrhizi (250 ppm) is listed as 100%. Besides, the “Test B disease control rating” value with Zymoseptoria tritici (setting [2]) is 97%. The “Test C disease control rating” value in assay [1] (250 ppm) turned out to be 100%.
In the case of `CCNC(=O)OC(c1ccc(-c2noc(C(F)(F)F)n2)cc1)c1cccc(F)c1` (stereo not drawn) [Compound 133], the “Test A disease control rating” value in the assay on Phakopsora pachyrhizi (250 ppm) came out at 100%. Moreover, the “Test B disease control rating” value in the assay with Zymoseptoria tritici (setting [2]) is given as 99%. The “Test C disease control rating” value in assay [1] (250 ppm) was 100%.
Regarding `O=C(OCc1ccc(-c2noc(C(F)(F)F)n2)cc1)n1ccnc1` [Compound 8, 2-[4-[5-(trifluoromethyl)-1,2,4-oxadiazol-3-yl]phenyl]methyl-1H-imidazole-1-carboxylate], the “Test A disease control rating” value in the assay on Phakopsora pachyrhizi (255 ppm) amounted to 100%. Also, the “Test B disease control rating” value in the assay on Zymoseptoria tritici (255 ppm) stood at 13%. Also, the “Test C disease control rating” value in assay [1] (255 ppm) is 100%.
Take `CCNC(=O)OCCCn1cc(-c2noc(C(F)(F)F)n2)cn1` [Compound 18]: the pest or weed control at 50 ppm in the assay with Phakopsora pachyrhizi (Phakopsora pachyrhizi, 216 h, 50 ppm, read-out: Test A disease control rating) turned out to be 38%; in assay [1] (Puccinia recondita, 168 h, 50 ppm, read-out: Test C disease control rating) it was 0%. Besides, the “Test B disease control rating” value in the assay on Zymoseptoria tritici (setting [2]) is given as 50* %.
Consider `O=C(OC(c1ccc(-c2noc(C(F)(F)F)n2)cc1)c1cccc(F)c1)n1ccnc1` (stereo not drawn) [Compound 125], for which the “Test A disease control rating” value with Phakopsora pachyrhizi (250 ppm) amounted to 100%. The “Test B disease control rating” value with Zymoseptoria tritici (setting [2]) turned out to be 97%. In assay [1] (250 ppm), the “Test C disease control rating” value is reported as 100%.
`C=CCNC(=O)OC(c1ccccc1)c1ccc(-c2noc(C(F)(F)F)n2)cc1` (stereo not drawn) [Compound 138]: in the assay on Phakopsora pachyrhizi (250 ppm), the “Test A disease control rating” value turned out to be 100%. Besides, in the assay with Zymoseptoria tritici (setting [2]), the “Test B disease control rating” value is recorded as 99%. For the same compound, in assay [1] (250 ppm), the “Test C disease control rating” value was 100%.
On to `CCNC(=O)OCCc1ccc(-c2noc(C(F)(F)F)n2)cc1` [Compound 43, 2-[4-[5-(trifluoromethyl)-1,2,4-oxadiazol-3-yl]phenyl]ethyl N-ethylcarbamate], for which the pest or weed control at 10 ppm worked out at 100% in the assay on Phakopsora pachyrhizi (Phakopsora pachyrhizi, 216 h, 10 ppm, read-out: Test A disease control rating) and 97% in assay [1] (Puccinia recondita, 168 h, 10 ppm, read-out: Test C disease control rating). The “Test B disease control rating” value in the assay on Zymoseptoria tritici (setting [2]) is on record as 0* %.
Regarding `NC(=O)OCc1cccc(-c2noc(C(F)(F)F)n2)c1` [Compound 93], the “Test A disease control rating” value in the assay on Phakopsora pachyrhizi (250 ppm) is 100%. Besides, in the assay on Zymoseptoria tritici (setting [2]), the “Test B disease control rating” value came out at 97%. Also, the “Test C disease control rating” value in assay [1] (250 ppm) is given as 100%.
`CCNC(=O)OCc1ccc(-c2noc(C(F)(F)F)n2)cc1` [Compound 2]: the “Test A disease control rating” value with Phakopsora pachyrhizi (260 ppm) amounted to 100%. The “Test B disease control rating” value in the assay on Zymoseptoria tritici (260 ppm) is 99%. Also, the “Test C disease control rating” value in assay [1] (260 ppm) turned out to be 100%.
Regarding `CC(OC(=O)NC1CC1)c1ccc(-c2noc(C(F)(F)F)n2)cc1` (stereo not drawn) [Compound 77], in the assay with Phakopsora pachyrhizi (10 ppm), the “Test A disease control rating” value stood at 100%. Moreover, in the assay on Zymoseptoria tritici (10 ppm), the “Test B disease control rating” value was 0%. In addition, in assay [1] (10 ppm), the “Test C disease control rating” value is on record as 92%.
In the case of `CCCNC(=O)OC(C)c1ccc(-c2noc(C(F)(F)F)n2)cc1` (stereo not drawn) [Compound 73], the “Test A disease control rating” value with Phakopsora pachyrhizi (10 ppm) worked out at 100%. The “Test C disease control rating” value in assay [1] (10 ppm) is 68%.
For the compound `COC(=O)c1ccc(CNC(=O)OC(c2ccccc2)c2ccc(-c3noc(C(F)(F)F)n3)cc2)cc1` (stereo not drawn) [Compound 119], in the assay on Phakopsora pachyrhizi (250 ppm), the “Test A disease control rating” value was found to be 100%. Besides, in assay [1] (250 ppm), the “Test C disease control rating” value was 74%.
On to `COC(=O)NN=C(C)c1ccc(-c2noc(C(F)(F)F)n2)cc1` [Compound 108], for which, in the assay with Phakopsora pachyrhizi (10 ppm), the “Test A disease control rating” value stood at 92%. Also, the “Test C disease control rating” value in assay [1] (10 ppm) is 89%.
On to `C#CCCNC(=O)OCCCc1ccc(-c2noc(C(F)(F)F)n2)cc1` [Compound 65], for which the “Test A disease control rating” value in the assay with Phakopsora pachyrhizi (50 ppm) was determined as 100%. In addition, the “Test C disease control rating” value in assay [1] (50 ppm) stood at 100%.
Turning to `C#CCNC(=O)OC(C)c1ccc(-c2noc(C(F)(F)F)n2)s1` (stereo not drawn) [Compound 61], in the assay on Phakopsora pachyrhizi (10 ppm), the “Test A disease control rating” value amounted to 100%. Besides, the “Test C disease control rating” value in assay [1] (10 ppm) is given as 100%.
As for `CCN(C)C(=O)OCc1ccc(-c2noc(C(F)(F)F)n2)cc1` [Compound 52], the “Test A disease control rating” value in the assay with Phakopsora pachyrhizi (10 ppm) is on record as 100%. For the same compound, the “Test C disease control rating” value in assay [1] (10 ppm) was determined as 68%.
